Measurements as given in patent US20120095056A1, “2,5-DISUBSTITUTED TETRAZOLE DERIVATIVES AND THEIR USE AS NICOTINIC ACETYLCHOLINE RECEPTOR MODULATORS” (NEUROSEARCH A/S, priority 2009, published 2012).

How the values were obtained:
[1] = biological target: T1, human nicotinic acetylcholine receptor subtype a4b2 (Homo sapiens, UniProt P17787+P43681); assay: FLIPR nAChR a4b2 positive allosteric modulator activity (modulation of nicotine-induced response); type: cell-based; settings: shift of nicotine pEC50 in the presence of 10 μM test compound compared to nicotine alone, HEK-293 cells stably expressing hα4β2
T1 construct: expressed in transfected cells
Description: Characterization of hα4β2 Positive Allosteric Modulators Using FLIPR
The modulator activity is determined as a fluorescence-based assay using a Fluorometric Imaging Plate Reader (FLIPR) as described below in more detail.
Full concentration-response curves of nicotine +/− test compound are generated and delta pEC50 values are calculated based on EC50 values for nicotine +/− test compound. EC50 values (Effective Concentration 50%) represent the concentration of the nicotine, at which the nicotine-induced response is 50% of the maximal nicotine-induced response.

T1 sequence (P43681 29-627 limits assumed): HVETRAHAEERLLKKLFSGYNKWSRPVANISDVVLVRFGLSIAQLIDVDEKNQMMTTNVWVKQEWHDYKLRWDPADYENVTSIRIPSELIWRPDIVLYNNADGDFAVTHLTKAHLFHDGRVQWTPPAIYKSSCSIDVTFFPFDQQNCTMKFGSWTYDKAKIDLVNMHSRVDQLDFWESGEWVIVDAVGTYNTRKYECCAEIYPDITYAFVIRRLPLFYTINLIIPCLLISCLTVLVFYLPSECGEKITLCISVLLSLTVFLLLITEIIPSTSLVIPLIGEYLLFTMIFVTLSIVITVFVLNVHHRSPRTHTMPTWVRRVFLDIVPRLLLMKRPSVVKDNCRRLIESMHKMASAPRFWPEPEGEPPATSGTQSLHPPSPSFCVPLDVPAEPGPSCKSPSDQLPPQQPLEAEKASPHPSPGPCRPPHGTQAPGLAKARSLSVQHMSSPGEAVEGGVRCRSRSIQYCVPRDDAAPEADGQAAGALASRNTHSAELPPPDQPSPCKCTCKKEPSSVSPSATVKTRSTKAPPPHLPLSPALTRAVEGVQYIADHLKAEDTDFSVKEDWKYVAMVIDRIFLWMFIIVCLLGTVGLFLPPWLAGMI
T1 sequence (P17787 26-502): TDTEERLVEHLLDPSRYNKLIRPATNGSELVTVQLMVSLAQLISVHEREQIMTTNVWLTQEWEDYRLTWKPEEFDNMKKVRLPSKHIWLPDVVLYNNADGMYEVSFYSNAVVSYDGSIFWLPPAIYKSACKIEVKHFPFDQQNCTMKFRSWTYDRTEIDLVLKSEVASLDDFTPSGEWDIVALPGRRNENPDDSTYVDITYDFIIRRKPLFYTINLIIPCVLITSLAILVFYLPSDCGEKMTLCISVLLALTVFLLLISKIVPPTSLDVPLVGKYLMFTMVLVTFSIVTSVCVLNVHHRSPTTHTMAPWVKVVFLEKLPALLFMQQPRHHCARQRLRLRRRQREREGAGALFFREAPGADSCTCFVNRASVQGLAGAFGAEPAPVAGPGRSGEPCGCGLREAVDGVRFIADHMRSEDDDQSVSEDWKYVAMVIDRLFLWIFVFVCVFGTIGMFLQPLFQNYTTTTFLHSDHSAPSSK

| Delta pEC50 [1] | melting point | Structure (SMILES) |
| --- | --- | --- |
|  | 175 to 191 °C | N#Cc1cccc(-c2nnn(-c3cncc(Br)c3)n2)c1 [Compound 2.5, 3-[2-(5-Bromo-3-pyridyl)tetrazol-5-yl]benzonitrile] |
| 1.8 |  | N#Cc1cccc(-c2nnn(-c3cncc(F)c3)n2)c1 [Compound 2.6, 3-[2-(5-Fluoro-3-pyridyl)tetrazol-5-yl]benzonitrile] |
| 1.6 |  | N#Cc1cccc(-n2nnc(-c3cncc(F)c3)n2)c1 [Compound 2.9, 3-[5-(5-Fluoro-3-pyridyl)tetrazol-2-yl]benzonitrile] |
| 1.3 |  | N#Cc1cccc(-n2nnc(-c3ccc(F)nc3)n2)c1 [Compound 2.10, 3-[5-(6-Fluoro-3-pyridyl)tetrazol-2-yl]benzonitrile] |
| 1.1 |  | N#Cc1ccc(-n2nnc(-c3cccnc3)n2)cc1C#N [Compound 2.14, 4-[5-(3-Pyridyl)tetrazol-2-yl]phthalonitrile] |

The remaining lines, values behind:

| Structure (SMILES) | Delta pEC50 [1] | melting point |
| --- | --- | --- |
| N#Cc1cccc(-n2nnc(-c3cccnc3)n2)c1 [Compound 2.1, 3-(5-Pyridin-3-yl-tetrazol-2-yl)-benzonitrile] | 1.9 |  |
| N#Cc1cccc(-c2nnn(-c3cccnc3)n2)c1 [Compound 2.2, 3-(2-Pyridin-3-yl-2h-tetrazol-5-yl)-benzonitrile] | 1.9 | 185 to 205 °C |
| Cl.N#Cc1cccc(-c2nnn(-c3ccc(F)nc3)n2)c1 [Compound 2.3, 3-[2-(6-Fluoro-3-pyridyl)tetrazol-5-yl]benzonitrile hydrochloride] | 1.7 | 168 to 170 °C |
